These results are taken from patent publication US11873313B1, “Development of novel tetra nuclear distorted square anti-prism Dy (III) imine complex for pharmaceutical and industrial applications” (KING FAISAL UNIVERSITY, priority 2023, dated 2024).

One assay deals with breast cancer cell line. Briefly: Anti-oxidant activity. The following applies: against the breast cancer cell line (so in the source).
Another assay concerns E-coli bacteria. Briefly: Anti-microbial activity (antibacterial, inhibition zone and MIC). Format: cell-based.
In a further assay the test system is colon cancer cell line. Kind of assay: Anti-cancer activity against colon cancer cell line. Format: cell-based. As to conditions: read-out: IC50 (anticancer activity).

Each structure is given as a SMILES string. Converted amounts (≈) assume the structure as drawn.

As to `O=C1O[C@H]([C@@H](O)CO)C(O)=C1O` [1-ascorbic acid, reference compound], in the assay with breast cancer cell line, the “IC50 (Antioxidant activity)” value was found to be 55.2 µg/mL (≈ 313 µM).
`CC1COc2c(N3CCN(C)CC3)c(F)cc3c(=O)c(C(=O)O)cn1c23` (stereo not shown) [Ofloxacin, reference compound]: the inhibition zone with E-coli bacteria was 30 mm. This compound also registered an MIC in the assay with E-coli bacteria (Escherichia coli) of 2.25 µg/mL (≈ 6.23 µM).
For `CC[C@]1(O)C[C@@H]2CN(CCc3c([nH]c4ccccc34)[C@@](C(=O)OC)(c3cc4c(cc3OC)N(C)[C@H]3[C@@](O)(C(=O)OC)[C@H](OC(C)=O)[C@]5(CC)C=CCN6CC[C@]43[C@@H]65)C2)C1` [vinblastine, reference compound], in the assay on colon cancer cell line, the IC50 was 4.7 µg/mL (≈ 5.8 µM).

In general, MIC refers to the lowest concentration that inhibits growth of the organism. A word on the IC50: it is the point on the concentration scale where inhibition reaches its midpoint.
